This is an account of results in article PMC8533149 (Biomolecules, 2021).

The experiment relates to HIV-1 LTR-III G-quadruplex (FAM/TAMRA-labeled LTR-III). Description: FRET melting assay, LTR-III G4. To be noted: Table S1 primary screening, ligand:ODN 50:1, singlicate. The class given is binding. A digest of the protocol: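 Melting is followed by FAM fluorescence (ex 495/em 520 nm) while heating at 1 °C/min from 30 to 95 °C. Labelled ODN at 0.5 μM, pre-annealed in 10 mM Li cacodylate, 100 mM KCl, pH 7.4, mixed with ligand at 50:1 (25 μM), or 20:1 and 2:1 for titration. ΔTm is relative to the 0.25% DMSO buffer control.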
Turning to `COc1cc(O)cc(OC)c1C=C1N=C(C)N(C)C1=O` [N 976], the “LTR-III ΔTm” value stood at 0.5 °C.

For the compound `COc1cc(/C=C2N=C(/C=C/c3c(F)c(F)nc(F)c3F)N(C)C\2=O)cc(OC)c1O` [N 980], the “LTR-III ΔTm” value is 1 °C.

For the compound `CC1=NC(=Cc2ccc(C)o2)C(=O)N1C` [N 1020], the “LTR-III ΔTm” value is -0.2 °C.

Take `CC1=NC(=Cc2cccs2)C(=O)N1C` [N 1021]: the “LTR-III ΔTm” value was determined as 0.3 °C.

With `COc1c(O)ccc(C=C2N=C(C)N(C)C2=O)c1OC` [N 1027.1], the “LTR-III ΔTm” value is -0.1 °C.

With `COc1cc(/C=C2\N=C(C)N(C)C2=O)c(OC)cc1O` [N 1036], the “LTR-III ΔTm” value turned out to be 0.5 °C.

Take `COc1cc(O)ccc1/C=C1N=C(/C=C/c2cccs2)N(C)C\1=O` [N 1039]: the “LTR-III ΔTm” value was determined as 1.1 °C.

On to `COc1c(O)ccc(/C=C2\N=C(C)N(C)C2=O)c1O` [N 1042], for which the “LTR-III ΔTm” value was determined as 1.4 °C.

In the case of `COc1cc(/C=C2N=C(/C=C/c3ccncc3)N(C)C\2=O)c(OC)cc1O` [N 1048], the “LTR-III ΔTm” value stood at 1.5 °C.

For `COc1cc(O)ccc1C=C1N=C(C=CN2CCCC2)N(C)C1=O` [N 1118], the “LTR-III ΔTm” value amounted to 3 °C.

As for `COc1cc(O)ccc1C=C1N=C2C=CC=CN2C1=O` [N 1123], the “LTR-III ΔTm” value is 0.3 °C.

Take `COc1cc(O)ccc1/C=C1\N=C(C(C)=O)N(C)C1=O` [N 1124]: the “LTR-III ΔTm” value was found to be 1.3 °C.

For the compound `COc1cc(O)ccc1C=C1N=C(Cc2ccccc2)N(C)C1=O` [N 1135], the “LTR-III ΔTm” value worked out at 0 °C.

Consider `COc1cc(O)ccc1/C=C1\N=C(C(=O)c2ccccc2)N(C)C1=O` [N 1139], for which the “LTR-III ΔTm” value is 0.6 °C.

`COc1cc(O)ccc1C=C1N=C(C(=Cc2ccncc2)c2ccccc2)N(C)C1=O` [N 1142]: the “LTR-III ΔTm” value was 0.1 °C.

On to `CCCCN(CCCC)c1ccc(C=C2N=C(C)N(C)C2=O)cc1` [SA 33], for which the “LTR-III ΔTm” value worked out at 0.2 °C.

As for `CN1C(=O)C(=Cc2ccc(O)c(F)c2)N=C1c1ccccc1` [SA 49.1], the “LTR-III ΔTm” value worked out at 0 °C.

As to `CC1=NC(=Cc2ccc(O)c(F)c2)C(=O)N1CC(N)=O` [SA 99], the “LTR-III ΔTm” value was 0.1 °C.

In the case of `O=C1CN2C(=O)C(=Cc3ccc(O)cc3)N=C2C(=O)N1` [SA 102], the “LTR-III ΔTm” value amounted to 0.2 °C.

As to `CN1C(=O)CN2C(=O)C(=Cc3ccc(O)cc3)N=C2C1=O` [SA 108], the “LTR-III ΔTm” value was -0.1 °C.

Consider `CCOC(=O)CN1C(=O)C(=Cc2cccc([N+](=O)[O-])c2)N=C1C` [SA 111], for which the “LTR-III ΔTm” value is -0.1 °C.

On to `CCOC(=O)CN1C(=O)C(=Cc2ccc(OC)cc2)N=C1C` [SA 117], for which the “LTR-III ΔTm” value is -0.2 °C.

`CC1=NC(=Cc2cccc([N+](=O)[O-])c2)C(=O)N1CC(N)=O` [SA 128]: the “LTR-III ΔTm” value was determined as 0.1 °C.

For the compound `COc1ccc(C=C2N=C3C(=O)NC(=O)CN3C2=O)cc1` [SA 130], the “LTR-III ΔTm” value came out at 0.4 °C.

Consider `CCOC(=O)CN1C(=O)C(=Cc2ccccc2)N=C1C` [SA 148], for which the “LTR-III ΔTm” value was -1.3 °C.

Regarding `CC1=NC(=Cc2ccccc2)C(=O)N1CC(N)=O` [SA 152], the “LTR-III ΔTm” value is -0.3 °C.

As to `COc1ccc(C=C2N=C(Nc3ccc(Br)cc3)N(C)C2=O)cc1` [SA 158], the “LTR-III ΔTm” value is 0.2 °C.

Take `COc1ccc(C=C2N=C(Nc3ccc(OC)cc3)N(C)C2=O)cc1` [SA 168]: the “LTR-III ΔTm” value is -0.4 °C.

As for `COc1ccc(C=C2N=C(Nc3ccc(C#N)cc3)N(C)C2=O)cc1` [SA 179], the “LTR-III ΔTm” value worked out at 0.7 °C.

Take `CC(C)OC(=O)c1noc(=O)c(O)c1-c1ccccc1` [SA 300A]: the “LTR-III ΔTm” value was 0.1 °C.

Take `CC(C)OC(=O)c1noc(=O)c(O)c1-c1cccc2ccccc12` [SA 300B]: the “LTR-III ΔTm” value is -0.9 °C.

Regarding `CC(C)OC(=O)c1noc(=O)c(O)c1-c1ccc(C(C)C)cc1` [SA 300D], the “LTR-III ΔTm” value is -1.2 °C.

Take `CC(C)OC(=O)c1noc(=O)c(O)c1-c1ccccc1F` [SA 305A]: the “LTR-III ΔTm” value is -0.7 °C.

`CC(C)OC(=O)c1noc(=O)c(O)c1-c1cccc(C(F)(F)F)c1` [SA 305B]: the “LTR-III ΔTm” value was -0.5 °C.
